Laboratory results reported in ChEMBL document CHEMBL4699524 (Bioorg Med Chem Lett, 2020).

Experiments:
Plasmodium falciparum [1] = assay: Antiplasmodial activity against chloroquine-sensitive Plasmodium falciparum NF54 by LDH assay; format: functional, organism-based
Plasmodium falciparum [2] = assay: Antiplasmodial activity against chloroquine-resistant Plasmodium falciparum Dd2 by LDH assay; format: functional, organism-based
CHO = assay: Cytotoxicity against CHO cells assessed as reduction in cell viability by MTT assay; format: cell-based; details: Cricetulus griseus
Leishmania donovani [3] = assay: Antileishmanial activity against Leishmania donovani 1S promastigotes assessed as inhibition of parasite growth incubated for 72 hrs by resazurin dye based assay; format: functional, organism-based
Leishmania donovani [4] = assay: Antileishmanial activity against Leishmania donovani 9515 promastigotes assessed as inhibition of parasite growth incubated for 72 hrs by resazurin dye based assay; format: functional, organism-based; details: Leishmania donovani, 9515, 72 h
Leishmania major = assay: Antileishmanial activity against Leishmania major IR-173 promastigotes assessed as inhibition of parasite growth incubated for 72 hrs by resazurin dye based assay; format: functional, organism-based; details: IR-173, 72 h
[5] = Selectivity index, ratio of IC50 for CHO cells to IC50 for antileishmanial activity against Leishmania donovani 9515 by resazurin dye based assay; format: toxicity; details: hamster, read-out: Ratio IC50
[6] = Selectivity index, ratio of IC50 for CHO cells to IC50 for antileishmanial activity against Leishmania donovani 1S by resazurin dye based assay; format: toxicity; details: hamster, read-out: Ratio IC50
in vitro = details: hamster, CHO cells
Leishmania donovani [7] = assay: Potency index, ratio of dihydroartemisinin IC50 to test compound IC50 for antileishmanial activity against Leishmania donovani 1S promastigotes incubated for 72 hrs by resazurin dye based assay; format: functional
Leishmania donovani [8] = assay: Potency index, ratio of dihydroartemisinin IC50 to test compound IC50 for antileishmanial activity against Leishmania donovani 9515 promastigotes incubated for 72 hrs by resazurin dye based assay; format: functional
Leishmania donovani [9] = assay: Potency index, ratio of artemether IC50 to test compound IC50 for antileishmanial activity against Leishmania donovani 1S promastigotes incubated for 72 hrs by resazurin dye based assay; format: functional
Leishmania donovani [10] = assay: Potency index, ratio of artemether IC50 to test compound IC50 for antileishmanial activity against Leishmania donovani 9515 promastigotes incubated for 72 hrs by resazurin dye based assay; format: functional
Leishmania donovani [11] = assay: Potency index, ratio of artesunate IC50 to test compound IC50 for antileishmanial activity against Leishmania donovani 1S promastigotes incubated for 72 hrs by resazurin dye based assay; format: functional
Leishmania donovani [12] = assay: Potency index, ratio of artesunate IC50 to test compound IC50 for antileishmanial activity against Leishmania donovani 9515 promastigotes incubated for 72 hrs by resazurin dye based assay; format: functional

SMILES	IC50 (Plasmodium falciparum [1]) [µM]	IC50 (Plasmodium falciparum [2]) [µM]	IC50 (CHO) [µM]	IC50 (Leishmania donovani [3]) [µM]	IC50 (Leishmania donovani [4]) [µM]	IC50 (Leishmania major) [µM]	selectivity ratio [5]	selectivity ratio [6]	selectivity ratio (in vitro)	Ratio IC50 (Leishmania donovani [7])	Ratio IC50 (Leishmania donovani [8])	Ratio IC50 (Leishmania donovani [9])	Ratio IC50 (Leishmania donovani [10])	Ratio IC50 (Leishmania donovani [11])	Ratio IC50 (Leishmania donovani [12])
COc1ccc2nc3cc(Cl)ccc3c(N3CCN(CCO[C@H]4O[C@@H]5O[C@@]6(C)CC[C@H]7[C@H](C)CC[C@@H]([C@H]4C)[C@@]57OO6)C(C)C3)c2c1 (stereo partly drawn)	0.017	0.0413	6	2.38	1.59	0.69	5	4	9						
C[C@@H]1CC[C@H]2C(C)(COC(=O)[C@H]3CCCN3C(=O)C(F)(F)F)O[C@@H]3O[C@@]4(C)CC[C@@H]1[C@]32OO4 (stereo partly drawn)	0.0079	0.0078	> 100	9.29	37.6	15.6	11	3	4						
C[C@@H]1CC[C@H]2C(C)(COC(=O)c3ccco3)O[C@@H]3O[C@@]4(C)CC[C@@H]1[C@]32OO4 (stereo partly drawn)	0.0092	0.0031	> 100	> 100	> 100	> 100	1		1						
C[C@@H]1CC[C@H]2C(C)(COC(=O)c3ccc(-c4ccccc4)cc3)O[C@@H]3O[C@@]4(C)CC[C@@H]1[C@]32OO4 (stereo partly drawn)	0.0073	0.0069	> 100	4.42	2.8	9.87	23	> 36	10	30	30	30	30	30	30
C[C@@H]1CC[C@H]2C(C)(CO)O[C@@H]3O[C@@]4(C)CC[C@@H]1[C@]32OO4 (stereo partly drawn)	0.0041	0.0074	> 100	> 100	> 100	> 100	1		1						
C[C@@H]1CC[C@H]2C(C)(COC(=O)c3ccc([N+](=O)[O-])cc3)O[C@@H]3O[C@@]4(C)CC[C@@H]1[C@]32OO4 (stereo partly drawn)	0.0067	0.0026	> 100	5.15	4.26	5.71	19	> 24	18						
CCCC(=O)OCC1(C)O[C@@H]2O[C@@]3(C)CC[C@H]4[C@H](C)CC[C@@H]1[C@@]24OO3 (stereo partly drawn)	0.0169	0.0069	> 100	12.4	45	11.9	8	> 2	8						
COc1ccc2nc3cc(Cl)ccc3c(N3CCNCC3)c2c1	1.49	1.67	3.4	3.26	3.21	3.52	1	1.1	1						
C[C@H]1[C@@H](O)O[C@@H]2O[C@@]3(C)CC[C@H]4[C@H](C)CC[C@@H]1[C@@]24OO3 [ARTENIMOL]	0.0022	0.0012	> 100	27	31.2	42.6	4	3	2						
CNCCCNc1c2ccc(Cl)cc2nc2ccc(OC)cc12	0.0091	0.117	0.5	3.7	3.33	1.43	0.1	0.2	0.4						
CCCCCC(=O)OCC1(C)O[C@@H]2O[C@@]3(C)CC[C@H]4[C@H](C)CC[C@@H]1[C@@]24OO3 (stereo partly drawn)	0.0601	0.0432	> 100	25.5	23	13.9	4	> 4	7						
CC[C@H]1CN2CCc3cc(OC)c(OC)cc3[C@@H]2C[C@@H]1C[C@H]1NCCc2cc(OC)c(OC)cc21 [EMETINE]			0.29												
COc1ccc2nc3cc(Cl)ccc3c(N3CCNC(C)C3)c2c1 (stereo not drawn)	0.158	0.384	5.6	4.16	3.54	3.47	1.4	1.6	1.6						
COc1ccc2nc3cc(Cl)ccc3c(NCCN)c2c1	0.0139	0.0807	1	2.26	2.81	2.07	0.4	0.4	0.5						
C[C@@H]1CC[C@H]2C(C)(COC(=O)c3ccc(F)cc3)O[C@@H]3O[C@@]4(C)CC[C@@H]1[C@]32OO4 (stereo partly drawn)	0.0037	0.0044	> 100	10.1	8.11	7.57	10	> 12	13						
CO[C@H]1O[C@@H]2O[C@@]3(C)CC[C@H]4[C@H](C)CC[C@@H]([C@H]1C)[C@@]24OO3			> 100	42.3	90.9	22.5	2	1	4						
C[C@H]1[C@H](OC(=O)CCC(=O)O)O[C@@H]2O[C@@]3(C)CC[C@H]4[C@H](C)CC[C@@H]1[C@@]24OO3 [SODIUM ARESUNATE]	0.008		> 100	63.1	80.2	61.2	1.6	1	1.6						
C[C@@H]1CC[C@H]2C(C)(COC(=O)CCc3ccccc3)O[C@@H]3O[C@@]4(C)CC[C@@H]1[C@]32OO4 (stereo partly drawn)	0.0074	0.0115	> 100	24.4	24.6	6.36	4	> 4	16						
COc1ccc2nc3cc(Cl)ccc3c(NCCNCCO[C@H]3O[C@@H]4O[C@@]5(C)CC[C@H]6[C@H](C)CC[C@@H]([C@H]3C)[C@@]46OO5)c2c1	0.0026	0.0353	1.6	0.38	0.32	0.29	4	5	6						
C[C@@H]1CC[C@H]2C(C)(COC(=O)c3cc4ccccc4o3)O[C@@H]3O[C@@]4(C)CC[C@@H]1[C@]32OO4 (stereo partly drawn)	0.0146	0.0071	> 100	13.5	10.3	11.2	7	> 10	9						
C[C@@H]1CC[C@H]2C(C)(COC(=O)c3cccs3)O[C@@H]3O[C@@]4(C)CC[C@@H]1[C@]32OO4 (stereo partly drawn)	0.0048	0.0059	> 100	11.5	> 100	9.93	9		10	30	30	30	30	30	30
CC(=O)OCC1(C)O[C@@H]2O[C@@]3(C)CC[C@H]4[C@H](C)CC[C@@H]1[C@@]24OO3 (stereo partly drawn)	0.0112	0.0126	> 100	85.2	> 100	42.1	1		2						
COc1ccc2nc3cc(Cl)ccc3c(N3CCN(CCO[C@H]4O[C@@H]5O[C@@]6(C)CC[C@H]7[C@H](C)CC[C@@H]([C@H]4C)[C@@]57OO6)CC3)c2c1	0.267	0.43	> 100	54.1	32.1	4.8	3	5	33						
COc1ccc2nc3cc(Cl)ccc3c(NCCCN(C)CCO[C@H]3O[C@@H]4O[C@@]5(C)CC[C@H]6[C@H](C)CC[C@@H]([C@H]3C)[C@@]46OO5)c2c1	0.0122	0.0385	1.2	0.37	0.17	0.23	3	7	5						
